Results on 15 compounds are retold here after patent US12195437B2, “Lipophenolic flavonoid derivatives useful to reduce carbonyl and oxidative stresses (COS)” (Centre National de la Recherche Scientifique (CNRS), priority 2018, dated 2025).

Common to all, as to type: cell-based
Data set [1] has as its system ARPE-19 cells. Put plainly: Cytotoxicity of lipophenols on ARPE-19 cells (MTT). The conditions noted are these: 24 h; for cell survival: compared to untreated cells (100%); for toxicity (in words): concentrations up to 160 μM. As to the method: (§1) Cell viability was determined by MTT colorimetric assay. Cells were incubated for 2 h with MTT reagent (0.5 mg/mL). During this incubation time, dehydrogenases of living cells reduced MTT to insoluble purple formazan, which was then dissolved in DMSO. The absorbance at 570 nm and 655 nm of individual wells was measured using a microplate reader (BioRad 550). The percentage of viable cells was calculated as [(OD570 sample−OD655 sample)/(OD570 control−OD655 control)]×100%.
(§2) ARPE-19 cells were plated into 96-well plates (4×10^4 cells/well) and cultured for 24 h to reach confluence before lipophenol treatment. […] Control cells were incubated with DMSO (0.2%). The viability of the cells was determined using a MTT colorimetric assay. All samples are expressed as percentage of viability compared to non-treated control cells (normalized at 100% survival).
(§3) Results on the measurement of lipophenol toxicity will be discussed in % cell survival at a given lipophenol concentration compared to untreated cells. […] Any concentration of lipophenol resulting in cell survival of less than 5% (zero survival) will be considered a highly toxic concentration.

Data set [2] deals with ARPE-19 cells. Put plainly: Protection of lipophenols against ROS production (DCFDA probe, H2O2). The conditions noted are these: H2O2 600 μM; for increase in ROS compared to non-stressed cells: from 20 μM lipophenol. As to the method: (§4) ARPE-19 cells (cells from the retinal pigment epithelium) were obtained from ATCC, and were grown following the instructions in Dulbecco's Modified Eagle's Medium (DMEM)/Ham F12 (GIBCO) containing 10% v/v fetal bovine serum (FBS) and 1% v/v penicillin/streptomycin under a humidified air (95%)/CO2 (5%) atmosphere at 37° C. For experimental cell seeding and sub-culturing, cells were dissociated with 0.25% trypsin-EDTA, re-suspended in the culture medium and then plated at 1-3×10^5 cells/mL.
Reactive oxygen species (ROS) were measured in ARPE-19 cells with the probe DCFDA. The cell permeant reagent DCFDA is deacetylated by cellular esterases to […], which can be oxidized by ROS into the fluorophore 2′,7′-dichlorofluorescein (DCF). ARPE-19 cells were plated into black, opaque bottom 96-well plates (4×10^4 cells/well) and cultured for 24 h to reach confluence before drug treatment. The cell cultures were incubated with 2 μM of DCFDA for 45 min in DMEM/F12 medium without phenol red+1% FBS. The cells were rinsed and incubated with medium containing lipophenols at different concentrations (0-80 μM) for 1 h. Then H2O2 was added to a final concentration of 600 μM for 4 h, followed by the measurement of DCF production by fluorescence spectroscopy with excitation wavelength at 485 nm and emission wavelength at 535 nm. Control cells were incubated with DMSO (0.2%)±DCFDA±H2O2. All samples are expressed as percentage of ROS production compared to non-oxidized control cells (normalized at 100% of ROS production).
The lowest percentages of increase will therefore be representative of the most protective derivatives.

Data set [3] has as its system ARPE-19 cells. Briefly: Protection of lipophenols against all-trans-retinal toxicity (anti-carbonyl stress activity, MTT). The conditions noted are these: trans-retinal 15 μM; for anti-carbonyl stress activity (in words): up to 80 μM lipophenol; for cell survival gain (anti-carbonyl stress activity): compared to stressed untreated cells. As to the method:
as §4, §1
ARPE-19 cells were plated into 96-well plates (4×10^4 cells/well) and cultured for 24 h to reach confluence before lipophenol treatment. The cell cultures were treated with serum free medium containing lipophenols at different concentrations (0-80 μM) for 1 h. Then all-trans-retinal was added to a final concentration of 15 μM for 4 h, before rinsing with medium. Control cells were incubated with DMSO (0.2%)±all-trans-retinal. The cell viability was determined 16-20 h later using a MTT colorimetric assay. All samples are expressed as percentage of viability compared to non-treated and exposed to all-trans-retinal control cells. Non-treated and non-exposed to all-trans-retinal control cells are normalized at 100% survival.
The results on the measurement of anti-carbonyl stress activity will be discussed in % cell survival gain compared to cells stressed by trans-retinal (at 15 μM) and not treated with lipophenols. Any survival gain greater than +5% will be considered as a proven anti-carbonyl stress activity.

The test system of data set [4] is ARPE-19 cells. Put plainly: Protection of lipophenols against photoactivated A2E toxicity (MTT). The conditions noted are these: A2E 20 μM, blue light. As to the method: as §4, §1
ARPE-19 cells were plated into 96-well plates (4×10^4 cells/well) and cultured for 24 h to reach confluence before lipophenol treatment. The cell cultures were treated with serum free DMEM/F12 medium without phenol red containing lipophenols at different concentrations (0-80 μM) for 1 h. Then A2E was added to a final concentration of 20 μM for 6 h, before rinsing with medium. Control cells were incubated with DMSO (0.2%)+A2E. Cells were exposed to intense blue light (4600 LUX) for 30 min to induce phototoxicity of A2E and incubated at 37° C. The cell viability was determined 16-20 h later using a MTT colorimetric assay. All samples are expressed as percentage of viability compared to non-treated and exposed to A2E control cells. Non-treated and non-exposed to A2E control cells are normalized at 100% survival.
Photoactivation of A2E leads to its oxidation and can generate cytotoxic derivatives, in particular carbonyl derivatives responsible for carbonyl stress. Results on lipophenol protection against photoactivated A2E toxicity will be discussed in % cell survival gain compared to cells stressed by A2E and not treated by lipophenols. This additional evaluation was not performed for all synthesized lipophenolic derivatives but only a selection of them to discuss the results obtained.

The nature of data set [5]: Cytotoxicity of lipophenols on ARPE-19 cells (MTT). The conditions noted are these: human, ARPE-19 cells (retinal pigment epithelium), tested 0-160 μM, read-out: CC50 (cytotoxic concentration 50). As for the experimental part:
as §1, §2, §3

In the case of `CC(C)Oc1cc(O)cc2oc(-c3ccc(O)c(O)c3)c(O)c(=O)c12` [Q-50iP, reference compound], in data set [1] (160 μM lipophenol), the cell survival is 72%. For the same compound, in data set [1], the “toxicity (in words)” value is given as “almost no toxicity”. For the same compound, the “gain of % of ROS production compared to non-stressed cells” value (“gain of % … to non-stressed cells” below) in data set [2] (80 μM lipophenol) is given as “+46%”. Further, the “anti-carbonyl stress activity (in words)” value in data set [3] was “did not show anti-carbonyl stress potency”.

Regarding `CCCCC/C=C\C/C=C\CCCCCCCC(=O)Oc1c(-c2ccc(O)c(O)c2)oc2cc(O)cc(O)c2c1=O` [Q-3LA, (9Z,12Z)-2-(3,4-dihydroxyphenyl)-5,7-dihydroxy-4-oxo-4H-chromen-3-yl octadeca-9,12-dienoate], the cell survival in data set [1] (80 μM lipophenol) was found to be 156%; in data set [1] (160 μM lipophenol), 124%. Further, the “cell survival gain against photoactivated A2E” value in data set [4] (from 60 μM lipophenol) is given as “+48%”. For the same compound, the “cell survival gain, maximum protection” value in data set [3] (20 μM lipophenol) is on record as “+9%”.

Regarding `CCCCC/C=C\C/C=C\CCCCCCCC(=O)O[C@H]1Cc2c(OC(C)C)cc(O)cc2O[C@@H]1c1ccc(O)c(O)c1` [C-3LA-5OiP, (9Z,12Z)-(2R,3S)-2-(3,4-dihydroxyphenyl)-7-hydroxy-5-isopropoxy-chroman-3-yl octadeca-9,12-dienoate], the “cell survival gain against photoactivated A2E” value in data set [4] (concentration not given) is listed as “+30%”. In addition, the “gain of % … to non-stressed cells” value in data set [2] (80 μM lipophenol) is reported as “+67%”. The “cell survival gain (anti-carbonyl stress activity)” value in data set [3] (80 μM lipophenol) was “+9%”.

In the case of `CC(C)Oc1cc(O)cc2c1C[C@H](O)[C@@H](c1ccc(O)c(O)c1)O2` [C-50iP, reference compound], the “toxicity (in words)” value in data set [1] is listed as “no toxicity”. The “increase in ROS compared to non-stressed cells” value (shortened to “increase … to non-stressed cells”) in data set [2] came to 0%. For the same compound, the “anti-carbonyl stress activity (in words)” value in data set [3] is reported as “no anti-carbonyl stress activity”.

Consider (+)-catechin [reference compound], for which the “increase … to non-stressed cells” value in data set [2] was 0%. For the same compound, in data set [3], the “anti-carbonyl stress activity (in words)” value is “no anti-carbonyl stress activity”.

With `CC/C=C\C/C=C\C/C=C\CCCCCCCC(=O)Oc1c(-c2ccc(O)c(O)c2)oc2cc(O)cc(OC(C)C)c2c1=O` [Q-3ALA-5OiP, (9Z,12Z,15Z)-7-hydroxy-2-(3,4-dihydroxyphenyl)-5-isopropoxy-4-oxo-4H-chromen-3-yl octadeca-9,12,15-trienoate], the “concentration from which cytotoxicity is induced” value in data set [1] was found to be 60 µM. The “cell survival gain (anti-carbonyl stress activity)” value in data set [3] (40 μM lipophenol) is “+24%”.

As to `CCCCC/C=C\C/C=C\CCCCCCCC(=O)Oc1c(-c2ccc(O)c(O)c2)oc2cc(O)cc(OC(C)C)c2c1=O` [Q-3LA-5OiP, (9Z,12Z)-7-hydroxy-2-(3,4-dihydroxyphenyl)-5-isopropoxy-4-oxo-4H-chromen-3-yl octadeca-9,12-dienoate], in data set [5], the CC50 at 24 h was less than 80 µM. Moreover, the “cell survival gain (anti-carbonyl stress activity)” value in data set [3] (40 μM lipophenol) is “+34%”; in data set [3] (80 μM lipophenol), “+49%”.

Take `CC(C)Oc1cc(O)c2c(=O)c(O)c(-c3ccc(O)c(O)c3)oc2c1` [Q-70iP, reference compound]: in data set [1], the “concentration from which cell survival is zero (highly toxic concentration)” value amounted to 40 µM and the “toxicity (in words)” value is listed as “very important cytotoxicity even at low concentration”. Further, in data set [2] (20 μM lipophenol), the “gain of % … to non-stressed cells” value is given as “+31%”. For the same compound, the “anti-carbonyl stress activity (in words)” value in data set [3] is “did not show anti-carbonyl stress potency”.

Consider `CC/C=C\C/C=C\C/C=C\C/C=C\C/C=C\C/C=C\CCC(=O)Oc1c(-c2ccc(O)c(O)c2)oc2cc(OC(C)C)cc(O)c2c1=O` [Q-3DHA-7OiP, (4Z,7Z,10Z,13Z,16Z,19Z)-5-hydroxy-2-(3,4-dihydroxyphenyl)-7-isopropoxy-4-oxo-4H-chromen-3-yl docosa-4,7,10,13,16,19-hexaenoate], for which the “toxicity (in words)” value in data set [1] is listed as “no toxicity”. Also, the “cell survival gain against photoactivated A2E” value in data set [4] (as early as 20 μM lipophenol (plateau)) is reported as “+62%”. For the same compound, in data set [3] (80 μM lipophenol), the “cell survival gain (anti-carbonyl stress activity)” value is recorded as “+29%”.

In the case of `Oc1cc(O)cc(O)c1` [phloroglucinol, reference compound], the cell survival in data set [1] (160 μM lipophenol) turned out to be 61%. Further, the “protection against photoactivated A2E (in words)” value in data set [4] (up to 80 μM lipophenol) is “no cell protection”. For the same compound, the “gain of % … to non-stressed cells” value in data set [2] (80 μM lipophenol) is given as “+50%”. The “anti-carbonyl stress activity (in words)” value in data set [3] was “no survival gain”.

In the case of `CC/C=C\C/C=C\C/C=C\CCCCCCCC(=O)Oc1c(-c2ccc(O)c(O)c2)oc2cc(OC(C)C)cc(O)c2c1=O` [Q-3ALA-7OiP, (9Z,12Z,15Z)-5-hydroxy-2-(3,4-dihydroxyphenyl)-7-isopropoxy-4-oxo-4H-chromen-3-yl octadeca-9,12,15-trienoate], in data set [1], the “toxicity (in words)” value is “no toxicity”. Moreover, in data set [4] (80 μM lipophenol, compared to stressed untreated cells), the “cell survival gain against photoactivated A2E” value was “+77%”. Also, the “cell survival gain (anti-carbonyl stress activity)” value in data set [3] (80 μM lipophenol) is reported as “+29%”.

Consider `CC(C)Oc1cc(O)c2c(c1)O[C@H](c1ccc(O)c(O)c1)[C@@H](O)C2` [C-70iP, reference compound], for which the “toxicity (in words)” value in data set [1] is recorded as “no toxicity”. In data set [2], the “increase … to non-stressed cells” value amounted to 0%. Further, the “anti-carbonyl stress activity (in words)” value in data set [3] was “no anti-carbonyl stress activity”.

Consider `CCCCC/C=C\C/C=C\CCCCCCCC(=O)Oc1c(-c2ccc(O)c(O)c2)oc2cc(OC(C)C)cc(O)c2c1=O` [Q-3LA-7OiP, (9Z,12Z)-5-hydroxy-2-(3,4-dihydroxyphenyl)-7-isopropoxy-4-oxo-4H-chromen-3-yl octadeca-9,12-dienoate], for which the cell survival in data set [1] (160 μM lipophenol) came to 153%. Further, in data set [4] (from 40 μM lipophenol (plateau)), the “cell survival gain against photoactivated A2E” value is “+86%”. Also, the “cell survival gain (anti-carbonyl stress activity)” value in data set [3] (80 μM lipophenol) was “+38%”.

In the case of `CCCCC/C=C\C/C=C\CCCCCCCC(=O)O[C@H]1Cc2c(O)cc(OC(C)C)cc2O[C@@H]1c1ccc(O)c(O)c1` [C-3LA-7OiP, (9Z,12Z)-(2R,3S)-2-(3,4-dihydroxyphenyl)-5-hydroxy-7-isopropoxy-chroman-3-yl octadeca-9,12-dienoate], the “concentration from which cell survival is zero (highly toxic concentration)” value in data set [1] is 80 µM. Moreover, the “gain of % … to non-stressed cells” value in data set [2] (80 μM lipophenol) is on record as “+37%”. The “cell survival gain (anti-carbonyl stress activity)” value in data set [3] (40 μM lipophenol) is listed as “+27%”.

As to `CC/C=C\C/C=C\C/C=C\C/C=C\C/C=C\C/C=C\CCC(=O)Oc1c(-c2ccc(O)c(O)c2)oc2cc(O)cc(O)c2c1=O` [Q-3DHA, (4Z,7Z,10Z,13Z,16Z,19Z)-2-(3,4-dihydroxyphenyl)-5,7-dihydroxy-4-oxo-4H-chromen-3-yl docosa-4,7,10,13,16,19-hexaenoate], the CC50 at 24 h in data set [5] is less than 160 µM. In addition, the “cell survival gain, maximum protection” value in data set [3] (60 μM lipophenol) is reported as “+21%”.
